Reference: PubChem BioAssay (NCI)
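Cultured in 96-well plates, cells were exposed to test compound for 48 hours across five concentrations. GI50 marks 50% less growth. At the TGI there is no net growth.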

What was measured:
Test in all cases: NCI-60 cell line screen, 48 h
T-47D breast = tested on: T-47D breast
HL-60(TB) leukemia = tested on: HL-60(TB) leukemia
CCRF-CEM leukemia = tested on: CCRF-CEM leukemia
M14 melanoma = tested on: M14 melanoma
DU-145 prostate = tested on: DU-145 prostate
OVCAR-5 ovarian = tested on: OVCAR-5 ovarian
IGROV1 ovarian = tested on: IGROV1 ovarian
SF-539 CNS = tested on: SF-539 CNS
NCI-H522 lung = tested on: NCI-H522 lung
K-562 leukemia = tested on: K-562 leukemia
OVCAR-4 ovarian = tested on: OVCAR-4 ovarian
ACHN renal = tested on: ACHN renal
NCI/ADR-RES ovarian = tested on: NCI/ADR-RES ovarian
CAKI-1 renal = tested on: CAKI-1 renal
HCT-15 colon = tested on: HCT-15 colon
RXF 393 renal = tested on: RXF 393 renal
OVCAR-3 ovarian = tested on: OVCAR-3 ovarian
786-0 renal = tested on: 786-0 renal
UACC-257 melanoma = tested on: UACC-257 melanoma
SF-268 CNS = tested on: SF-268 CNS
PC-3 prostate = tested on: PC-3 prostate
COLO 205 colon = tested on: COLO 205 colon
NCI-H23 lung = tested on: NCI-H23 lung
UO-31 renal = tested on: UO-31 renal
OVCAR-8 ovarian = tested on: OVCAR-8 ovarian
HOP-62 NSCLC = tested on: HOP-62 NSCLC
BT-549 breast = tested on: BT-549 breast
NCI-H226 lung = tested on: NCI-H226 lung
U251 CNS = tested on: U251 CNS
SK-MEL-28 melanoma = tested on: SK-MEL-28 melanoma
SN12C renal = tested on: SN12C renal
SK-MEL-2 melanoma = tested on: SK-MEL-2 melanoma
SNB-75 CNS = tested on: SNB-75 CNS
TK-10 renal = tested on: TK-10 renal
MOLT-4 leukemia = tested on: MOLT-4 leukemia
NCI-H460 lung = tested on: NCI-H460 lung
HCC-2998 colon = tested on: HCC-2998 colon
RPMI-8226 leukemia = tested on: RPMI-8226 leukemia
MDA-MB-435 = tested on: MDA-MB-435
UACC-62 melanoma = tested on: UACC-62 melanoma
MDA-MB-231 breast = tested on: MDA-MB-231 breast
HS 578T breast = tested on: HS 578T breast
HT29 colon = tested on: HT29 colon
A498 renal = tested on: A498 renal
SK-OV-3 ovarian = tested on: SK-OV-3 ovarian
SK-MEL-5 melanoma = tested on: SK-MEL-5 melanoma
SF-295 CNS = tested on: SF-295 CNS
MCF7 breast = tested on: MCF7 breast
EKVX NSCLC = tested on: EKVX NSCLC
A549 NSCLC = tested on: A549 NSCLC
HOP-92 NSCLC = tested on: HOP-92 NSCLC
MALME-3M melanoma = tested on: MALME-3M melanoma
HCT-116 colon = tested on: HCT-116 colon
SW-620 colon = tested on: SW-620 colon
SNB-19 CNS = tested on: SNB-19 CNS
SR leukemia = tested on: SR leukemia
LOX IMVI melanoma = tested on: LOX IMVI melanoma
KM12 colon = tested on: KM12 colon

SMILES: O=S(=O)(Nc1ccc(Cl)cc1)c1ccc(-c2cnc(C3CC3)o2)cc1
- GI50 (T-47D breast): 0.86 µM
- TGI (T-47D breast): 17.4 µM
- GI50 (HL-60(TB) leukemia): 0.388 µM
- TGI (HL-60(TB) leukemia): 8.58 µM
- GI50 (CCRF-CEM leukemia): 0.564 µM
- TGI (CCRF-CEM leukemia): 19.9 µM
- GI50 (M14 melanoma): 0.406 µM
- TGI (M14 melanoma): 16.9 µM
- GI50 (DU-145 prostate): 2.06 µM
- TGI (DU-145 prostate): 15.3 µM
- GI50 (OVCAR-5 ovarian): 3.69 µM
- TGI (OVCAR-5 ovarian): 17.9 µM
- GI50 (IGROV1 ovarian): 0.637 µM
- TGI (IGROV1 ovarian): 15.2 µM
- GI50 (SF-539 CNS): 0.513 µM
- TGI (SF-539 CNS): 3.43 µM
- GI50 (NCI-H522 lung): 0.367 µM
- TGI (NCI-H522 lung): 11.1 µM
- GI50 (K-562 leukemia): 0.353 µM
- TGI (K-562 leukemia): > 75 µM
- GI50 (OVCAR-4 ovarian): 2.64 µM
- TGI (OVCAR-4 ovarian): 17.9 µM
- GI50 (ACHN renal): 1.25 µM
- TGI (ACHN renal): 18.1 µM
- GI50 (NCI/ADR-RES ovarian): 0.41 µM
- TGI (NCI/ADR-RES ovarian): 8.94 µM
- GI50 (CAKI-1 renal): 0.586 µM
- TGI (CAKI-1 renal): 16.5 µM
- GI50 (HCT-15 colon): 0.368 µM
- TGI (HCT-15 colon): 15.1 µM
- GI50 (RXF 393 renal): 0.683 µM
- TGI (RXF 393 renal): 4.98 µM
- GI50 (OVCAR-3 ovarian): 0.372 µM
- TGI (OVCAR-3 ovarian): 3.73 µM
- GI50 (786-0 renal): 1.67 µM
- TGI (786-0 renal): 20.2 µM
- GI50 (UACC-257 melanoma): 8.36 µM
- TGI (UACC-257 melanoma): 28.8 µM
- GI50 (SF-268 CNS): 1.85 µM
- TGI (SF-268 CNS): 23 µM
- GI50 (PC-3 prostate): 1 µM
- TGI (PC-3 prostate): 15.5 µM
- GI50 (COLO 205 colon): 1.27 µM
- TGI (COLO 205 colon): 10 µM
- GI50 (NCI-H23 lung): 2.28 µM
- TGI (NCI-H23 lung): 16.4 µM
- GI50 (UO-31 renal): 1.14 µM
- TGI (UO-31 renal): 15.5 µM
- GI50 (OVCAR-8 ovarian): 2.54 µM
- TGI (OVCAR-8 ovarian): 22.4 µM
- GI50 (HOP-62 NSCLC): 0.791 µM
- TGI (HOP-62 NSCLC): 18.6 µM
- GI50 (BT-549 breast): 0.637 µM
- TGI (BT-549 breast): 21.4 µM
- GI50 (NCI-H226 lung): 4.86 µM
- TGI (NCI-H226 lung): 23.1 µM
- GI50 (U251 CNS): 0.659 µM
- TGI (U251 CNS): 17.6 µM
- GI50 (SK-MEL-28 melanoma): 5.72 µM
- TGI (SK-MEL-28 melanoma): 21.9 µM
- GI50 (SN12C renal): 1.09 µM
- TGI (SN12C renal): 19.5 µM
- GI50 (SK-MEL-2 melanoma): 0.766 µM
- TGI (SK-MEL-2 melanoma): 21.2 µM
- GI50 (SNB-75 CNS): 0.191 µM
- TGI (SNB-75 CNS): 1.54 µM
- GI50 (TK-10 renal): 6.49 µM
- TGI (TK-10 renal): 21.9 µM
- GI50 (MOLT-4 leukemia): 0.786 µM
- TGI (MOLT-4 leukemia): 41.3 µM
- GI50 (NCI-H460 lung): 0.395 µM
- TGI (NCI-H460 lung): 7.28 µM
- GI50 (HCC-2998 colon): 2.02 µM
- TGI (HCC-2998 colon): 15.3 µM
- GI50 (RPMI-8226 leukemia): 1.06 µM
- TGI (RPMI-8226 leukemia): 22.7 µM
- GI50 (MDA-MB-435): 0.15 µM
- TGI (MDA-MB-435): 0.511 µM
- GI50 (UACC-62 melanoma): 0.584 µM
- TGI (UACC-62 melanoma): 13.7 µM
- GI50 (MDA-MB-231 breast): 1.67 µM
- TGI (MDA-MB-231 breast): 15.1 µM
- GI50 (HS 578T breast): 0.372 µM
- TGI (HS 578T breast): 6.86 µM
- GI50 (HT29 colon): 0.414 µM
- TGI (HT29 colon): 14.4 µM
- GI50 (A498 renal): 0.168 µM
- TGI (A498 renal): 0.732 µM
- GI50 (SK-OV-3 ovarian): 2.07 µM
- TGI (SK-OV-3 ovarian): 15.6 µM
- GI50 (SK-MEL-5 melanoma): 0.768 µM
- TGI (SK-MEL-5 melanoma): 12.8 µM
- GI50 (SF-295 CNS): 0.425 µM
- TGI (SF-295 CNS): 12.5 µM
- GI50 (MCF7 breast): 0.383 µM
- TGI (MCF7 breast): 15 µM
- GI50 (EKVX NSCLC): 2.13 µM
- TGI (EKVX NSCLC): 18.8 µM
- GI50 (A549 NSCLC): 1.49 µM
- TGI (A549 NSCLC): 22.3 µM
- GI50 (HOP-92 NSCLC): 1.81 µM
- TGI (HOP-92 NSCLC): 18.1 µM
- GI50 (MALME-3M melanoma): 0.743 µM
- TGI (MALME-3M melanoma): 20.3 µM
- GI50 (HCT-116 colon): 0.413 µM
- TGI (HCT-116 colon): 15.9 µM
- GI50 (SW-620 colon): 0.378 µM
- TGI (SW-620 colon): 14 µM
- GI50 (SNB-19 CNS): 0.847 µM
- TGI (SNB-19 CNS): 18.2 µM
- GI50 (SR leukemia): 0.21 µM
- TGI (SR leukemia): 28.5 µM
- GI50 (LOX IMVI melanoma): 0.595 µM
- TGI (LOX IMVI melanoma): 18.6 µM
- GI50 (KM12 colon): 0.431 µM
- TGI (KM12 colon): 16.2 µM
